Assays:
[1] = Preformulation pH stability study in buffered solutions; assay type: physicochemical; settings: pH 4 and 7, ambient and stressed (40° C. and 50° C.) storage
Experimental: Preformulation studies of swainsonine hydrochloride, bulk drug substance, and in combination with powder and semisolid fill gelatin capsules were conducted with respect to the following: hygroscopicity, pH, stability, and solubility. […] At 20% and 50% RH it absorbed 1.9% and 2.1% of water by Karl Fischer after 48 hours of storage. The moisture uptake diminishes when anhydrous powder excipients (e.g. lactose anhydrous and mannitol powder) are used to formulate the pharmaceutical active into a hard capsule.

[2] = target: T1, purified rat liver Golgi mannosidase II (Rattus norvegicus, UniProt P28494); assay: Inhibition of purified Golgi mannosidase II in vitro (p-nitrophenyl mannopyranoside); assay type: biochemical; settings: pH 5.6, 60 minutes at 37° C.
T1 construct: 15 μl of purified rat liver Golgi mannosidase II; from tissue; host or cells: rat liver
T1 sequence (P28494 1-1148): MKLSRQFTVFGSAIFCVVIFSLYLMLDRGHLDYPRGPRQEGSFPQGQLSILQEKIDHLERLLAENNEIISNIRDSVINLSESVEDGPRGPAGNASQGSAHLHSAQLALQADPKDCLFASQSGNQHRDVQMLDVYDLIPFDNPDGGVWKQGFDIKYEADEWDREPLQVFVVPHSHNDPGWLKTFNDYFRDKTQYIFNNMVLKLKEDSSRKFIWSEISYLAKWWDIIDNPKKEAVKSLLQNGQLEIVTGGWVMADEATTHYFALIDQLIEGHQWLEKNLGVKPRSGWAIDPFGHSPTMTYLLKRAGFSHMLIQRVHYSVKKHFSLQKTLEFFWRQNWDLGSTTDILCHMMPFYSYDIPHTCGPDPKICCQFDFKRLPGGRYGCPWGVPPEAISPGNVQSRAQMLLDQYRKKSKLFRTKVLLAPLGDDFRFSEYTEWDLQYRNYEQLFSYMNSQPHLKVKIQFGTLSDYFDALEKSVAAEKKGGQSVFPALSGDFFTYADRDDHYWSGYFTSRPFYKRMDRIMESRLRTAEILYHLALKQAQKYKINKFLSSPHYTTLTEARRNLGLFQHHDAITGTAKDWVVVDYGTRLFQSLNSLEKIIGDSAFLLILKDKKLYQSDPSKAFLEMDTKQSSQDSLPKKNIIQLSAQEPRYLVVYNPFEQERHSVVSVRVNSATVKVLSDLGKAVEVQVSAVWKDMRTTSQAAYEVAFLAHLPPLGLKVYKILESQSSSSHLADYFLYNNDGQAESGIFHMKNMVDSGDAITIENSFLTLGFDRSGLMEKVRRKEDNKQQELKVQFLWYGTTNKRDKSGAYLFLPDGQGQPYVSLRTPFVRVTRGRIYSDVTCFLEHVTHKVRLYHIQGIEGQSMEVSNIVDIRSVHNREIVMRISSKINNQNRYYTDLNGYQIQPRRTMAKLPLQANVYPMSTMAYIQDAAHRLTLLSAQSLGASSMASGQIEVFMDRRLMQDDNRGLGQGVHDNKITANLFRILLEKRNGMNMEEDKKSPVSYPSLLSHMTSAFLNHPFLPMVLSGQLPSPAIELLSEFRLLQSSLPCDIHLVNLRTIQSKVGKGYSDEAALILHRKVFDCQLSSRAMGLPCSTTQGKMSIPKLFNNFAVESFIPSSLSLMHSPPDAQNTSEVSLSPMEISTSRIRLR
Experimental: The test compound swainsonine is prepared by 0.4 serial dilution of a 40 μM stock. Present in each determination is 10 μl diluted test compound, 25 μl of 10 mM paranitrophenyl mannopyranoside, 200 mM sodium acetate, pH 5.6 and 15 μl of purified rat liver Golgi mannosidase II. After incubating the reaction for 60 minutes at 37° C., the reaction is quenched with 50 μl of 0.5 M sodium carbonate. Absorption is read at […]. After subtracting the blank from positive controls and samples, the samples are normalized against the positive control mean using a variable slope, sigmoidal curve fit, with bottom=0, top=100. The signal is proportional to the amount of products from the uninhibited reaction.

[3] = tested on: SP1.A3a mouse mammary carcinoma cells; assay: Growth factor dependent proliferation of SP1.A3a cells in vitro (tritiated thymidine); assay type: cell-based; settings: 0.2 μg/ml, FIG. 7
Experimental: SP1.A3a mouse mammary carcinoma cells were grown for 24 hours in culture medium containing 10% bovine serum, with and without swainsonine hydrochloride at a concentration of 0.2 μg/ml. In the following 24 hours cells were maintained in serum-free medium (SFM) with and without swainsonine hydrochloride. Cells were then grown in the absence of growth factors for 6 hours, or exposed to one of the following growth factors: TNFα (tumor necrosis factor-α), TGFβ1 (transforming growth factor-β), TGFα, platelet-derived growth factor (PDGF), epidermal growth factor (EGF). Tritiated thymidine was added for a final 18 hours, cells were harvested using a multiple-cell harvester and radioactivity was measured in a β-counter as a measure of cell proliferation.

[4] = tested on: SP1.A3a mouse mammary adenocarcinoma; assay: SP1.A3a tumor growth in mice, Alzet mini-osmotic pump; assay type: in vivo, CBA/J mice; settings: for difference in mean tumour volume between control and treatment groups: 0.5 mg/kg/day via osmotic pump over 28 days
Experimental: A metastatic subclone of the SP1 tumor line (A3a), mouse mammary adenocarcinoma was maintained in exponential growth in RPMI 1640 containing 10% FBS. The cells were harvested and resuspended at 1×10^6/ml or 1×10^7/ml in PBS and 0.1 ml containing 1×10^5 injected S.C. into the right flank of 7 week old female CBA/J mice (Jackson Laboratories). Alzet mini-osmotic pumps were implanted subcutaneously, on the opposite side of anesthetized animals. The pumps were primed to deliver saline (control) or 0.5 mg/kg/day of swainsonine hydrochloride over 28 days. Mice were monitored for the appearance of a palpable tumour and subsequent tumor growth was measured using bernier callipers. Tumor weights and the number of lung metastasis were measured on day 42.

[5] = Toxicology studies (acute and chronic); assay type: in vivo
Experimental: Pharmacological and toxicological studies were conducted with swainsonine hydrochloride. In particular, the following were investigated: (a) pharmacokinetics of the compound in rats and monkeys; (b) acute toxicity at significant multiples of the intended human dose; (c) the toxicity profile of the compound was compared to the literature profile for swainsonine free base; (d) potential for genotoxicity; (e) time course, dose-dependence, tissue sensitivity and reversibility of oligosaccharide accumulation in tissue; and (f) serum AST and relationship to liver histology.

[6] = Solubility in distilled water at room temperature; assay type: physicochemical
Experimental: The melting point of the clear swainsonine hydrochloride crystal (prism) was 190-191° C. The solubility of swainsonine hydrochloride in distilled water at room temperature was about 3 g/ml, in contrast to the solubility of swainsonine free base, which is about 0.8 g/ml (see Table 5).

Cl.O[C@H]1[C@H]2[C@H](O)CCCN2C[C@@H]1O [swainsonine hydrochloride, (−)-(1S,2S,8R,8aR)-1,2,8-trihydroxyoctahydro-indolizidine hydrochloride salt]
stability in buffered solutions [1]: stable | IC50 [2]: 68 ± 21 nM | TGF-β1 and TNF-α dependent growth stimulation of SP1.A3a cells [3]: suppresses | difference in mean tumour volume between control and treatment groups ([4]; day 29 as printed): 27% | difference in mean tumour volume between control and treatment groups ([4]; day 32): 35% | difference in mean tumour volume between control and treatment groups ([4]; day 42): 32% | mean tumour weight ([4]; 0.5 mg/kg/day via osmotic pump, 42 day sacrifice, control 7.35 g): 4.87 g | incidence of lung metastasis, average ([4]; 0.5 mg/kg/day via osmotic pump, day 42 sacrifice, control 1.8): 0.25 nodules/mouse | dose at which acute toxicity occurs ([5]; acute toxicity): 13,000 times the intended human dose | sites of oligomannoside accumulation in lysosomes ([5]; chronic studies, doses proposed for humans): thyroid and also possibly the kidney could be the sites of reversible accumulation | solubility in distilled water at room temperature ([6]; Table 5): 3000 mg/mL | solubility in distilled water at room temperature ([6]; distilled water, room temperature): about 3 g/ml

From patent US6395745B1, “Alkaloid halide salts of swainsonine and methods of use” (priority 1997, dated 2002)
